# BindingDB's records for doi:10.1021/acs.jmedchem.7b01670 (Vrije Universiteit Amsterdam, 2018)
# Tests used:
# [1] = target: cAMP-specific 3',5'-cyclic phosphodiesterase 4B (Homo sapiens, UniProt Q07343); experiment: Inhibition of full length recombinant human PDE4B1 expressed in Sf21 insect cells using cAMP as substrate by scintillation proximity assay
# [2] = target: T1, Phosphodiesterase (Trypanosoma brucei, UniProt Q8WQX9); experiment: Inhibition of full length Trypanosoma brucei PDEB1 expressed in Sf21 insect cells using cAMP as substrate by scintillation proximity assay
# T1 sequence (Q8WQX9 whole entry): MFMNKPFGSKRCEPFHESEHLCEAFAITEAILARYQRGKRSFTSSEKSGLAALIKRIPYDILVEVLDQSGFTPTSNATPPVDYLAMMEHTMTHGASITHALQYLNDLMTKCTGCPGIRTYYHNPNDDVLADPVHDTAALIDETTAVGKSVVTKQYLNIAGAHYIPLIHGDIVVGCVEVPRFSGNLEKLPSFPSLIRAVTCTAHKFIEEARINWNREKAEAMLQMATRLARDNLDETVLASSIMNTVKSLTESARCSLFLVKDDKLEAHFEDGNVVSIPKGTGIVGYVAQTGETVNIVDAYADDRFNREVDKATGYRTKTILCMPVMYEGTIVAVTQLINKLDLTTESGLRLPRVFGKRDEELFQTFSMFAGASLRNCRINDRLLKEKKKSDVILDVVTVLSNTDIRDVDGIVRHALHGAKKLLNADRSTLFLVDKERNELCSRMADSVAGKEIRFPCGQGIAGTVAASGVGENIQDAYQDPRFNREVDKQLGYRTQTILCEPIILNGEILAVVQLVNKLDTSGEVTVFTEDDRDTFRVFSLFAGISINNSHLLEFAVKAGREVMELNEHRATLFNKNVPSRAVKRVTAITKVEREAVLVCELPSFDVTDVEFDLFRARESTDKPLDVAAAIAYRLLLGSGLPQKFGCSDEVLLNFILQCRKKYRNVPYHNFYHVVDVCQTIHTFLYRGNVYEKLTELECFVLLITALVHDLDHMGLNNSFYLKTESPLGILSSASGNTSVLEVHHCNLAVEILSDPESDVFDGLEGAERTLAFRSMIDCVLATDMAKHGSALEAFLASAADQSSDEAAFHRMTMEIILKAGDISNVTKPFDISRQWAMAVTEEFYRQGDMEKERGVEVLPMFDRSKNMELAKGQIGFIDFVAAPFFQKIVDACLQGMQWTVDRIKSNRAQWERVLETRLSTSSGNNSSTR
# Chain of cAMP-specific 3',5'-cyclic phosphodiesterase 4B (Q07343 whole entry): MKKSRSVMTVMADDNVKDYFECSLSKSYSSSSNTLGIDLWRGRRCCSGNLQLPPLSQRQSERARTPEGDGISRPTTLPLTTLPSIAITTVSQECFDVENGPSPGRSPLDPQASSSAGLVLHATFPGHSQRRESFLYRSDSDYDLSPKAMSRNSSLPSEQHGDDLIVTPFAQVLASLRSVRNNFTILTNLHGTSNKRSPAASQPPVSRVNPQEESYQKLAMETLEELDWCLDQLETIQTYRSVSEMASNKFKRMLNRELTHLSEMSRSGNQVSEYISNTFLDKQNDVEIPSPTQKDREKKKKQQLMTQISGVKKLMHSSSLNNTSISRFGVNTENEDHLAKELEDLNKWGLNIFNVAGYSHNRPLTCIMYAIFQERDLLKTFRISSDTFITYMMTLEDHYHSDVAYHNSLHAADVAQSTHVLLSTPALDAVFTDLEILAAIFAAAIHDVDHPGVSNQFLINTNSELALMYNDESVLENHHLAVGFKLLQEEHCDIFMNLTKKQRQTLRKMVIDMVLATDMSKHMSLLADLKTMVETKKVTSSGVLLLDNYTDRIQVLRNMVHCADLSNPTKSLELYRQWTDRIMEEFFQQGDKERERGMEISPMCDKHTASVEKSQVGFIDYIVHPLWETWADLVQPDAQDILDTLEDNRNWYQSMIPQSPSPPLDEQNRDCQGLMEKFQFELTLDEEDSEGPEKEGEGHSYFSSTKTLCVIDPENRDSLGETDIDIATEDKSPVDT
Structure (SMILES),Ki [1] [nM],Ki [2] [nM]
COc1ccc(C2=NN(C3CCCCCC3)C(=O)[C@@H]3CC=CC[C@H]23)cc1-c1ccc(C(=O)NCC(N)=O)cc1,630,40
COc1ccc(C2=NN(C3CCCCCC3)C(=O)[C@@H]3CC=CC[C@H]23)cc1-c1ccc(C(=O)N2CCC(=O)C2)cc1,3160,1000
COc1ccc(C2=NN(C3CCCCCC3)C(=O)[C@@H]3CC=CC[C@H]23)cc1-c1ccc(C(=O)N2CC(=O)N(C)C2)cc1,2510,1580
COc1ccc(C2=NN(C3CCCCCC3)C(=O)[C@@H]3CC=CC[C@H]23)cc1-c1ccc(C(=O)N2CNC(=O)C2)cc1,631,631
